Source: patent US11022604B2, “Dock derived compound against laminin receptor (37 LR) and uses thereof” (Purdue Research Foundation, priority 2017, dated 2021)

Test system: PC-3 cells
Test: Label-free quantitative proteomics and Ingenuity Pathway Analysis
Assay type: cell-based, human
Details: PC-3, 10 μM, 72 hours
Method: FIG. 7. Volcano Plot of Differentially regulated proteins in response to C3 treatment. PC-3 cells were treated with DMSO or 10 μM C3 for 72 hours and proteins were quantified using label free quantitative mass spectrometry. Proteins were graphed by fold change (Difference) and significance (−Log p) using a false discovery rate of 0.05 and an S0 of 0.1.
FIG. 8 Ingenuity pathway analysis of proteomic data from C3 treatment of PC-3 cells.
Wound Healing Assay. PC-3 cells were seeded in 6 well plates at 3×10^5 cells per well in complete media until the cells reached confluency. Three horizontal and three vertical scratches were made in the confluent monolayers using a standard 200 μL pipette tip and cellular debris were removed by washing with 1×DPBS three times. 1×RPMI-1640 supplemented with C3 or DMSO was added and cells were incubated for 48 hours as described previously. […] Images were uploaded and analyzed for scratch geometry using the tscratch program (96). First, global thresholding was performed, then individual images were manually inspected for single image threshold adjustment and scratch geometries were quantified. […] The samples were analyzed using the Dionex UltiMate 3000 RSLC Nano System coupled to the Q Exactive™ HF Hybrid Quadrupole-Orbitrap MS (Thermo Scientific). […]

Compound: O=C(c1cc(F)cc2c1OCOC2)N1CCN(C2c3ccccc3-c3ccccc32)CC1 [Compound C3, [4-(9h-fluoren-9-yl)piperazino](6-fluoro-4h-1,3-benzodioxin-8-yl)methanone]
- ICT1 protein level: 1.9 FC
